# Experimental data as given in patent US20240041902A1, “COMPOSITIONS AND METHODS FOR THE TREATMENT OF UROTHELIAL CANCER” (The State of Israel, Ministry of Agriculture & Rural …, priority 2020, published 2024).
# Tests used:
# [1] = system: T24 cells; experiment: Cell cycle analysis (PI staining, FACS); assay type: cell-based, human; details: 24 hours, DQ 30, sCBD 30, MMC 8 μg/mL
# Procedure: For cell cycle analysis, cells were seeded in 6-wells culture plates at a concentration of 5×10^5 cells per well in McCoy (for T24 cells). The following day, media was replaced with new media containing treatments or methanol control. Cells were then incubated for 24 h at 37° C. in a humidified 5% CO2, 95% air atmosphere. Following 24 h of incubation, media was replaced with new media containing treatment or methanol control. Cells from each well were then harvested and collected separately and centrifuged for 2 min at 900 g. The cell pellet was washed once with 1 mL of PBS and fixed with 70% cold ethanol at 4° C. for at least 1 h. The fixed cells were pelleted out and washed twice with 1 mL of PBS. The cell pellet was then stained by re-suspending in 250 μL of PI solution (50 μg/mL) containing RNase A (100 μg/mL) for 30 min in the dark. Following, 200 μL of PBS were added to each tube and cells were analyzed using FACS.
# Cell proliferation assay—XTT assay was carried on T24 and HTB-9 cells. 1×10^4 cells/well were seeded in 96-well plates. […] MMC was used as a positive control. XTT reagent (2,3,-bis (2-methoxy-4-nitro-5-sulfophenyl)-5-[(phenylamino)-carbonyl]-2H-tetrazolium inner salt) was added for 2 h at 37° C. in a humidified atmosphere of 5% CO2 to 95% air. Absorbance was recorded by a Synergy 111 hybrid reader photometer (BioTek) at 490 nm with 650 nm of reference wavelength. Cell survival (% r, viability) was estimated using the equation: % cell survival=(A490−A650) of treatment/(A490−A650) of solvent control×100. A490 and A650 are the absorbencies of the XTT colorimetric reaction. […] Apoptosis assay and cell cycle analysis—T24 cells were treated with cannabis compounds or with methanol as vehicle control. The cell cycle was determined at 24 hours and apoptosis was determined at 48 hours following treatment. Staining and detection followed the manufacturer's instructions. […] Then 200 μL of PBS was added to each tube and the cells were analyzed using FACS.
# [2] = system: T24 cells; experiment: Transwell cell invasion assay; details: MMC 4 μg/mL, positive control
# Description: A transwell assay, as described in [35], was used to determine cell invasion (n=3),
# [3] = system: E-cadherin; experiment: qRT-PCR of E-cadherin mRNA in T24 cells; assay type: cell-based, human; details: 2 hours treatment, extracts 30, MMC 8 μg/mL
# Description: […] The RNA was reverse transcribed. The expression of each target gene was normalized to the expression of hypoxanthine phosphoribosyltransferase 1 (HPRT1; geneID 3251) mRNA as the 2^−66 ΔCt method that presents the differences ( ) in the threshold cycle (Ct) between the target gene and the HPRT1 gene. ΔCt=Ct target gene—Ct HPRT1. Experiments were repeated 4 times (4 biological repeats), with two more technical repeats. The primers were as follows:
# [4] = system: T24 cells; experiment: Apoptosis assay (Annexin V-FITC and PI, FACS); assay type: cell-based, human; details: 48 hours
# Procedure: Apoptosis assay and cell cycle analysis—T24 cells were treated with cannabis compounds or with methanol as a vehicle control. Cell cycle was determined at 24 h and apoptosis was determined at 48 h post-treatment. Staining and detection followed manufacturer instructions. Briefly, for the apoptosis assay, the MEBCYTO Apoptosis Kit with Annexin V-FITC and PI (MBL, Enco, 4700) was used. Cells were seeded in culture 6-wells plates, at density of 5×10^5 cells per well in McCoy's 5A (for T24 a cells) or in RPMI (for HTB-9 cells). The following day, media was replaced with new media containing treatment or methanol control. Cells were then incubated for 24 or 48 h at 37° C. in a humidified 5% CO2 95% air atmosphere. Following incubation, cells were harvested and collected separately. Tubes were centrifuged for 2 min at 900 g and cell pellets were resuspended and washed twice with 1 mL of PBS. The cells in each sample were resuspended in 85 μL of Annexin binding buffer. Cells were stained using 10 μL of Annexin V-FITC solution and 5 μL of propidium iodide (PI) working solution followed by 15 min incubation in the dark at room temperature. Then 400 μL of Annexin V binding buffer were added to each tube and flow cytometry was performed using a FORTESA flow cytometer (FACS). Cells were considered to be apoptotic if they were Annexin V+/PI− (early apoptotic) or Annexin V+/PI+ (late apoptotic). Live cells were defined as Annexin V−/PI−, and Annexin V−/PI+ as necrotic.
# Cell proliferation assay—XTT assay was carried on T24 and HTB-9 cells. 1×10^4 cells/well were seeded in 96-well plates. […] MMC was used as a positive control. […] Absorbance was recorded by a Synergy 111 hybrid reader photometer (BioTek) at 490 nm with 650 nm of reference wavelength. […] The cell cycle was determined at 24 hours and apoptosis was determined at 48 hours following treatment. […] Then 200 μL of PBS was added to each tube and the cells were analyzed using FACS.
# [5] = system: N-cadherin; experiment: qRT-PCR of N-cadherin mRNA in T24 cells; assay type: cell-based, human; details: 2 hours treatment, 2 hours after washout
# Description: […] Cells were then harvested and total RNA was isolated. The RNA was reverse transcribed. The expression of each target gene was normalized to the expression of hypoxanthine phosphoribosyltransferase 1 (HPRT1; geneID 3251) mRNA as the 2^−66 ΔCt method that presents the differences ( ) in the threshold cycle (Ct) between the target gene and the HPRT1 gene. ΔCt=Ct target gene—Ct HPRT1. Experiments were repeated 4 times (4 biological repeats), with two more technical repeats. The primers were as follows:
compound,measurement,setting,value
"CO[C@@]12[C@H](COC(N)=O)C3=C(C(=O)C(C)=C(N)C3=O)N1C[C@@H]1N[C@@H]12 [MMC, Mitomycin-C]",G2/M-phase cells,[1],28.1%
same,S-phase cells,[1]; vehicle control 19.6%,34.4%
same,reduction of cell invasion in comparison to control,[2],43.7±4.8%
same,E-cadherin expression,[3]; 2 hours after washout,reduced
same,E-cadherin expression,[3]; 6 hours after washout,significantly induced
same,cell apoptosis,"[4]; CBC+THC 17.2+2.8, CBD 15, MMC 8 μg/mL, control 46.2%",79.6%
same,cell necrosis,"[4]; DQ 30, sCBD 30, MMC 8 μg/mL, control 1.69%",25.13%
same,N-cadherin expression,[5],slightly reduced
